One experiment has as its target T1, (Aβ)12 (Homo sapiens, UniProt P05067).
T1 construct: purchased Biopeptide Co; host or cells: chemical synthesis; oligomerised in house (HFIP, DMSO, HEPES pH 7.4, 37 °C, 24 h)
The experiment is described as follows: CD spectrum of (Aβ)12 after treatment with adamantane derivatives. As to conditions: for change in the CD spectrum of (Aβ)12: (Aβ)12 treated with adamantane derivative, 37° C., 190-250 nm; for effect of deforming the β-turn structure (rank order): among the adamantane derivatives tested. As to the method: (§1) (Aβ)12 was prepared according to a known method. Specifically, synthetic Aβ1-42 peptide (Biopeptide Co.) was suspended at room temperature in 100% 1, 1, 1, 3,3,3-hexafluoro-2-propanol (HFIP). After incubation for 30 minutes, HFIP was removed by evaporating under mild nitrogen flow. Then, Aβ1-42 was suspended again in dimethyl sulfoxide (DMSO) at a concentration of 5 mM and then diluted with mM 2-[4-(2-hydroxyethyl)-1-piperazinyl]ethanesulfonic acid (HEPES; pH 7.4) to a final concentration of 110 μM. The resulting solution was incubated at 37° C. for 24 hours while stirring at 500 rpm using a micro stir bar. After centrifugation at 4000 g for 30 minutes, thus obtained 56-kDa Aβ1-42 dodecamer, i.e. (Aβ)12, was concentrated (50 kDa and 100 kDa cut-off). The presence of (Aβ)12 in the concentrated sample was identified by sodium dodecyl sulfate polyacrylamide gel electrophoresis (SDS-PAGE). Its spherical structure was confirmed by atomic force microscopy. For cell culturing experiment, a 2 μM solution of (Aβ)12 was diluted using serum-free Dulbecco's modified Eagles medium (DMEM) to a final concentration of 33 nM, which corresponds to a monomer concentration of about 400 nM.
Circular dichroism (CD) spectra are useful in determining the secondary structure of proteins in solution. CD spectrum was obtained using a Jasco-810 instrument at high-sensitivity mode (5 mdeg), with a time constant of 4 s, at a scan rate of 100 nm/min, for 30 cycles. The spectrum was obtained at 37° C. in the wavelength region from 190 nm to 250 nm.
Referring to FIG. 5, when the amyloid oligomer was treated with the adamantane derivatives, the intensity of the positive band of the oligomer at 195 nm decreased and the positive band at 205 nm shifted toward longer wavelength. This means that the adamantane derivatives induce deformation of the oligomer structure by changing the configuration of the β-sheets. […] Although a detailed structure of the deformed oligomer is not clear, the decrease of intensity at 205 nm is due to the β-turn structure.

A further experiment concerns H19-7 cells. Nature of the experiment: FLIM of single live H19-7 cell in the presence of (Aβ)12 and adamantane derivatives. It is filed as cell-based, rat. As to conditions: for aspect ratio of single live cell: H19-7 cell treated with beta amyloid oligomer, FIG. 8; for apoptosis / toxicity of (Aβ)12 on single cell (fluorescence images): H19-7 cell, 33 nM (Aβ)12 plus adamantane derivative, FIG. 7. The protocol: as §1, with “After centrifugation at 4000 g for 30 minutes, thus obtained 56-kDa Aβ1-42 dodecamer, i.e. (Aβ)12, was concentrated (50 kDa and 100 kDa cut-off). The presence of (Aβ)12 in the concentrated sample was identified by sodium dodecyl sulfate polyacrylamide gel electrophoresis (SDS-PAGE). Its spherical structure was confirmed by atomic force microscopy.” left out
Rat hippocampal H19-7 cells were stored in DMEM containing 10% (v/v) fetal bovine serum (FBS). The cells were cultured to 80% colonies on a culture dish at low concentration in a 35° C. incubator of humidified 5% CO2 atmosphere. For fluorescence lifetime imaging microscopy (FLIM), the cells were cultured for a day after being transferred to a dish equipped with a poly-D-lysine-coated cover glass (MatTek Corporation). Before FLIM measurement, the cells were stained with 3 μM Cell Tracker Green CMFDA (Molecular Probes) solution and then incubated for 30 minutes in serum-free medium.
FLIM is a powerful tool for producing clear images of live cells. FLIM images were obtained at 40 MHz at an excitation wavelength of 467 nm (Picoquant PDL 800-B), using a band pass filter for 500-580 nm and a long pass emission filter for 473 nm (Semlock). A Nikon confocal microscope equipped with an oil-impregnated objective lens (NA 1.3) was used as a platform of an AFM scanner (PSIA). In FLIM measurement, time-correlated single photon counting is very important. […] The measurement was carried out after placing live cells on a poly-d-lysine-coated cover glass bottomed dish (MatTek Corporation) coated with and then filling serum-free medium diluted with PBS buffer.
For FLIM imaging, […] hippocampal cells (H19-7) were labeled with Cell Tracker Green having a relatively small pKa value.
In general, the degree of degeneration of neurons can be qualitatively analyzed based on the change in the aspect ratio of a single cell. The progression of neuronal death could be evaluated from the decrease in the aspect ratio.

For experiment [1], the system named is LTP in hippocampal CA1 region (Schaffer collateral pathway). Nature of the experiment: fEPSP / LTP extracellular recording in hippocampal CA1 transverse slice. On the set-up: species or system ICR mouse. Conditions: 1 hour after HFS. The protocol: Field excitatory postsynaptic potential (fEPSP) was measured in the CA1 region (Schaffer collateral pathway) of the hippocampus of an ICR mouse using the extracellular recording technique.
Hippocampal slice for fEPSP experiment was obtained from young (4-7 weeks old) male ICR mice. The mice were anesthetized with isoflurane prior to decapitation. After quickly taking out the brain of the mouse from the skull, the brain was cooled with ice and then put in a highly concentrated sucrose solution (sucrose 201 mM, KCl 3 mM, NaH2PO4 1.25 mM, MgCl2 3 mM, CaCl2 1 mM, NaHCO3 26 mM and D-glucose 10 mM) of pH 7.3 with oxygen (95% O2 and 5% CO2) supplied thereto. After isolating the hippocampus from the brain, transverse slices were obtained by cutting with a vibratome (Ted Pella, Redding, Calif., USA) in the high-concentration sucrose solution. Before extracellular recording, the transverse slice was incubated at 30° C. in a normal artificial cerebrospinal fluid (nACSF; NaCl 126 mM, KCl 3 mM, NaH2PO4 1.25 mM, MgSO4 1.3 mM, MgSO4 1.3 mM, CaCl2 2.4 mM, NaHCO3 26 mM and D-glucose 10 mM) of […] of pH 7.3 with oxygen supplied thereto. […]
In order to induce long-term potentiation (LTP), high-frequency stimulation (HFS, 2 trains, 100 Hz, 1s duration, 15 intervals) was applied with the same strength as that of the baseline experiment. Average LTP was calculated by averaging 20 fEPSP slopes at 55 to 60 minutes after the application of the high-frequency stimulation.
Extracellular field potential was recorded using a microelectrode AC amplifier model 1800 (A-M Systems, Inc., USA). The response signal was low-pass filtered at 5 kHz, digital sampled at 10 kHz using a Digidata 1322 A/D converter, and then analyzed using pCLAMP 9.0 software (Axon Instruments). […] The difference between two means was analyzed by an unpaired Student's t-test. p<0.05 was evaluated as significant. […]

The subject of another experiment is Aβ1-42. Nature of the experiment: In vivo test in Tg-APP/PS1 mice, ELISA of insoluble Aβ1-42. Also noted: species or system Tg-APPswe/PS1dE9 mouse. As to conditions: single ICV injection of TAMA (1.274 μg), 24 hours, prefrontal cortex, 7.5-month-old mice. As to the method:
(§2) Transgenic APPswe/PS1dE9 (Tg-APP/PS1) mouse overexpressing human APP and PS1 mutations was crossbred with hybrid mouse of C57BL6 and C3H until the same genetic background as the original Tg-APP/PS1 mouse was attained. The mice were accommodated in a cage with temperature and humidity controlled and 12 hour night/day cycles (lighting began at 7 a.m.), 1 to 3 mice per cage. The mice were freely given water and feed. All the mice were handled according to the Guideline for Animal Breeding and Management of the College of Pharmacy, Ewha Womans University. […]
(§3) Quantification of Aβ by ELISA was performed according to the literature of Lee et al. (Lee et al., Neurobiol. Dis. 22, 10-24). […]
(§4) Aβ1-40 peptide and Aβ1-42 peptide concentrations were determined using […] Human β Amyloid Aβ1-40 and Aβ1-42 colorimetric sandwich ELISA kits (Signal Select™, BioSource, Camarillo, Calif., USA).
(§5) A and B respectively show the quantity of insoluble Aβ1-40 (A) and insoluble Aβ1-42 (B) in the prefrontal cortex of a 7.5-month-old Tg-APP/PS1 mouse to which TAMA was administered represented as % mol with respect to when only the vehicle was administered. […]

The next experiment has as its system Aβ1-40. Nature of the experiment: In vivo test in Tg-APP/PS1 mice, ELISA of insoluble Aβ1-40. Also noted: species or system Tg-APPswe/PS1dE9 mouse. As to conditions: single ICV injection of TAMA (1.274 μg), 24 hours, prefrontal cortex, 7.5-month-old mice. As to the method:
as §2, §3, §4, §5

T1 sequence (P05067 672-713 limits assumed): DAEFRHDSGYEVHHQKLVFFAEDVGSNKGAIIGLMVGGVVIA

Consider `NCC12CC3(CN)CC(CN)(C1)CC(CN)(C2)C3` [TAMA, 1,3,5,7-Tetrakis(aminomethyl)adamantane], for which, at (Aβ)12, the “change in the CD spectrum of (Aβ)12” value was “negative band near 195 nm” and the “effect of deforming the β-turn structure (rank order)” value (“effect” below) is recorded as “TAMA>amantadine>memantine”. Further, in the experiment on H19-7 cells (after 120 minutes), the “aspect ratio of single live cell” value was “no decrease in the aspect ratio”. The “apoptosis / toxicity of (Aβ)12 on single cell (fluorescence images)” value with H19-7 cells is listed as “not affected by the toxicity of the oligomer at all”. Moreover, in experiment [1] (30 nM Aβ oligomer and 200 nM TAMA, N=9), the “fEPSP slope increase with respect to the baseline” value (“fEPSP slope increase” below) is reported as 170.4±13.72%. For the same compound, the “fEPSP slope increase” value in experiment [1] (200 nM TAMA without Aβ oligomer, N=4) is recorded as 183.2±11.30%. In addition, the “quantity of insoluble Aβ1-42 relative to vehicle (control) group” value with Aβ1-42 is reported as 87.8%. For the same compound, the “quantity of insoluble Aβ1-40 relative to vehicle (control) group” value with Aβ1-40 is reported as 69.7%.
With `NC12CC3CC(CC(C3)C1)C2` [amantadine, Amantadine], at (Aβ)12, the “change in the CD spectrum of (Aβ)12” value is on record as “broadening of the positive band from 205 nm to 215 nm” and the “effect” value is listed as “TAMA>amantadine>memantine”.
Turning to `CC12CC3CC(C)(C1)CC(N)(C3)C2` [memantine], on (Aβ)12, the “change in the CD spectrum of (Aβ)12” value was “almost identical to that of the typical β-turn peptide” and the “effect” value was “TAMA>amantadine>memantine”. For the same compound, the “aspect ratio of single live cell” value in the experiment with H19-7 cells (in 60 minutes) worked out at 1.0. Moreover, the “apoptosis / toxicity of (Aβ)12 on single cell (fluorescence images)” value with H19-7 cells is “comparable to or faster than in the presence of (Aβ)12 only”.
As for “Aβ oligomer: 56-kDa Aβ1-42 dodecamer prepared from synthetic Aβ1-42 peptide; neurotoxic oligomer used as challenge”, the “aspect ratio of single live cell” value in the experiment with H19-7 cells (after 120 minutes) is reported as 1.0. In addition, in experiment [1] (30 nM Aβ oligomer solution only, N=9), the “fEPSP slope increase” value was 124.7±5.743%.
